Measurements taken from patent US6294526A, “Use of flavone derivatives for induction of β-lactam-sensitivity of MRSA” (priority 1998, dated 2001).
In brackets after ≈: the same amount, converted by molar mass. Read-outs that look alike come from different tables or passages of the source.

How the values were obtained:
MSSA = test: antibacterial activity (MIC) by agar plate dilution method, MSSA strains; assay type: cell-based, Methicillin-sensitive Staphylooccus aureus; conditions: Staphylococcus aureus, 20 h; for MIC: range over strains
Protocol: (§1) The screening of the present invention may be carried out according to the agar plate dilution method designated by the Japan Society of Chemotherapy (Chemotherapy 29(1), 76-79 (1981)). Mueller-Hinton agar base semi-synthetic medium may be used for a plate culture medium for a sensitivity test together with an inoculating bacteria solution which may be prepared by culturing bacteria to be tested at 37° C. for 20 hours diluted with 8.5% by isotonic sodium chloride solution to 10^6 CFU/ml. Diluted β-lactam solutions are prepared by two times serial dilution. 1 ml of the diluted β-lactam solution and 1 ml of a predetermined concentration of a sample to be tested are added to 8 ml of the plate culture medium for a sensitivity test. To the resultant plate culture medium for sensitivity test, the bacteria are inoculated using a microplanter (SAKUMASEISAKUSYO Co.), cultured for 20 hours at 37° C. followed by assessing for a minimum inhibition concentration (MIC).
(§2) (A) Antibacterial activities of ether extract from Scutellaria barbata, SB-1 (isolated from Scutellaria barbata), apigenin (authentic sample) and luteolin (authentic sample) were shown in Table 1.
(§3) Flavones were dissolved in methanol and the others were dissolved in 0.1 N NaOH. A method for determination of antibacterial activity is, as described above, an agar plate dilution method designated by the Japan Society of Chemotherapy (Chemotherapy 29(1), 76-79 (1981)) to determine MIC value. MIC80 is a concentration at which a strain is prohibited to proliferate by 80% and MIC50 is a concentration at which a strain is prohibited to proliferate by 50%.

MRSA [1] = test: antibacterial activity (MIC) by agar plate dilution method, MRSA strains; assay type: cell-based, methicillin-resistant Staphylococcus aureus; conditions: Staphylococcus aureus, 20 h; for MIC: range over strains
Protocol: as §1, §2, §3

MRSA [2] = test: antibacterial activity of antibiotics alone and in the presence of apigenin (4 μg/ml), MRSA; assay type: cell-based, methicillin-resistant Staphylococcus aureus; conditions: MRSA
Protocol: as §1
(D) Then use of 4 μg/ml of apigenin and other antibiotics at the same time was studied. The antibiotics are penicillin , ampicillin, cephalothin, cefoxitin, cefuroxime, cefotaxime, vancomycin, streptomycin, chloramphenicol, kanamycin, erythromycin, nalixic acid and tetracycline.

MRSA No. 5 = test: effect of flavone on antibacterial activity of antibiotics against MRSA No. 5 in bouillon (broth microdilution); assay type: cell-based, methicillin-resistant Staphylococcus aureus; conditions: for MIC: Staphylococcus aureus, MRSA, 20 h
Protocol: Alternatively, the screening of the present invention may be carried out according to the broth microdilution method designated by the Japan Society of Chemotherapy (Chemotherapy 38(1), 102-105 (1990)). Muellar-Hinton broth is used as a culture medium for the sensitivity test, and 50 mg/ml of calcium(Ca) ion, 25 mg/ml of magnesium(Mg) ion, and 2% sodium chloride (NaCl) are added thereto. An inoculating bacteria solution may be prepared by culturing bacteria to be tested in Mueller-Hinton broth at 37° C. for 20 hours and diluting with Mueller-Hinton broth to 10^5 CFU/ml final concentration of inoculating bacteria. Diluted β-lactam solution is prepared by two times serial dilution series. 10 μl of the diluted β-lactam solution and 10 μl of a predetermined concentration of a sample of bacteria to be tested are added to mix with 80 μl of the culture medium for the sensitivity test. To the resultant plate culture medium for sensitivity test, the inoculating bacteria are added and culturing is carried out for 20 hours at 37° C. and then assessment for a minimum inhibition concentration (MIC) is carried out. A minimum inhibition concentration means the minimum concentration of β-lactam at which growth of bacteria is not recognized by the naked eye.
(G) Antibacterial activity of 6 β-lactams, that is, cephalothin, cefuroxime, cefotaxime, cefoxitin, streptomycin and vancomycin, against MRSA in the presence of 0.5 mM flavone was studied in bouillon.
Muellar-Hinton broth was used as a culture medium for the sensitivity test, and 50 mg/ml of calcium (Ca) ion, 25 mg/ml of maqnesium (Mg) ion, 2% sodium chloride (NaCl) were added thereto. An inoculating bacteria solution was prepared by culturing bacteria to be tested with Mueller-Hinton broth at 37° C. for 20 hours and diluting with Mueller-Hinton broth to 10^5 CFU/ml final concentration of inoculating bacteria. Diluted β-lactam solutions were prepared in two times serial dilutions starting from 10 mM. Ten microliters of the diluted β-lactam solution and 10 μl of 5 mM of flavone were mixed with 80 μl of the culture medium for the sensitivity test in a microplate having U-shaped wells and samples of bacteria to be tested were added thereto. The mixture was cultured 20 hours at 37° C. and then assessed for minimum inhibition concentration (MIC). Minimum inhibition concentration means minimum concentration of a β-lactum at which growth of bacteria is inhibited to the extent that bacteria is not recognized by the naked eye.

[3] = MSSA (7 strains), read-out: MIC50
[4] = MSSA, MSSA (7 strains), read-out: MIC
[5] = MRSA (20 strains), read-out: MIC50
[6] = MRSA, MRSA (20 strains), read-out: MIC
[7] = Staphylococcus aureus, 20 h, Antibiotics alone
[8] = Staphylococcus aureus, 20 h, antibiotic with Apigenin (4 μg/ml)
[9] = Concentration of flavone 0.5 mM

O=c1c(-c2ccc(O)cc2)coc2cc(O)cc(O)c12 [Genistein, genistein] was tested, and the MIC50 (MSSA; [3]) was > 250 µg/mL, the MIC (MSSA; [4]) was > 250 µg/mL and the MIC50 (MRSA [1]; [5]) was > 250 µg/mL. The MIC (MRSA [1]; [6]) was > 250 µg/mL.

For COc1ccc([C@@H]2CC(=O)c3c(O)cc(O)cc3O2)cc1O [Hesperetin, hesperetin], the MIC50 (MSSA; [3]) was > 250 µg/mL, the MIC (MSSA; [4]) was > 250 µg/mL and the MIC50 (MRSA [1]; [5]) was > 250 µg/mL. The MIC (MRSA [1]; [6]) was > 250 µg/mL.

NC[C@H]1O[C@H](O[C@H]2[C@H](O)[C@@H](O[C@H]3O[C@H](CO)[C@@H](O)[C@H](N)[C@H]3O)[C@H](N)C[C@@H]2N)[C@H](O)[C@@H](O)[C@@H]1O [Kanamycin, kanamycin] was tested, and the MIC50 (MRSA [2]; [7]) was > 250 µg/mL and the MIC50 (MRSA [2]; [8]) was 250 µg/mL.

With O=C1C[C@@H](c2ccc(O)cc2)Oc2cc(O)ccc21 [Liquiritigenin, liquiritigenin] the MIC50 (MSSA; MSSA) was > 250 µg/mL and the MIC50 (MRSA [1]; MRSA) was > 250 µg/mL.

For O=c1c(O)c(-c2cc(O)c(O)c(O)c2)oc2cc(O)cc(O)c12 [Myricetin, myricetin], the MIC50 (MSSA; [3]) was > 250 µg/mL, the MIC (MSSA; [4]) was > 250 µg/mL and the MIC50 (MRSA [1]; [5]) was > 250 µg/mL.

In the case of CCn1cc(C(=O)O)c(=O)c2ccc(C)nc21 [Nalidixic acid], the MIC50 (MRSA [2]; [7]) is reported as > 250 µg/mL and the MIC50 (MRSA [2]; [8]) is reported as > 250 µg/mL.

In the case of O=C1C[C@@H](c2ccc(O)cc2)Oc2cc(O)cc(O)c21 [Naringenin, naringenin], the MIC50 (MSSA; [3]) is reported as > 250 µg/mL, the MIC (MSSA; [4]) is reported as > 250 µg/mL and the MIC50 (MRSA [1]; [5]) is reported as > 250 µg/mL. For the same compound, the MIC (MRSA [1]; [6]) was > 250 µg/mL.

Cc1onc(-c2ccccc2)c1C(=O)N[C@@H]1C(=O)N2[C@@H]1SC(C)(C)[C@@H]2C(=O)O [Oxacillin, oxacillin] was tested, and the MIC50 (MRSA [2]; [7]) was 250 µg/mL, the MIC50 (MRSA [2]; [8]) was 250 µg/mL and the MIC (MRSA No. 5; Concentration of flavone 0 mM) was 1000 µM (≈ 401 µg/mL). The MIC (MRSA No. 5; [9]) was 15.6 µM (≈ 6.26 µg/mL).

Work on CC1(C)S[C@@H]2[C@H](NC(=O)Cc3ccccc3)C(=O)N2[C@H]1C(=O)O [Penicillin G, penicillin G] yielded an MIC (MRSA [2]; [7]) of 0.49 to 125 µg/mL, an MIC50 (MRSA [2]; [7]) of 31.3 µg/mL and an MIC (MRSA [2]; [8]) of 0.49 to 62.5 µg/mL. The MIC50 (MRSA [2]; [8]) was 15.6 µg/mL.

O=c1c(O)c(-c2ccc(O)c(O)c2)oc2cc(O)c(O)c(O)c12 [Quercetagetin, quercetagetin] was tested, and the MIC50 (MSSA; MSSA) was > 250 µg/mL, the MIC (MSSA; MSSA, MSSA (7 strains)) was > 250 µg/mL and the MIC50 (MRSA [1]; MRSA) was > 250 µg/mL. The MIC (MRSA [1]; MRSA, MRSA (20 strains)) was > 250 µg/mL.

COc1cc(O)c2c(=O)c(O)c(-c3ccc(O)c(O)c3)oc2c1 [Rhamnetin, rhamnetin] was tested, and the MIC50 (MSSA; [3]) was > 250 µg/mL, the MIC (MSSA; [4]) was > 250 µg/mL and the MIC50 (MRSA [1]; [5]) was > 250 µg/mL. The MIC (MRSA [1]; [6]) was > 250 µg/mL.

For [H]/N=C(/N)N[C@H]1[C@H](O)[C@@H](O)[C@H](O[C@@H]2O[C@@H](C)[C@](O)(C=O)[C@H]2O[C@@H]2O[C@@H](CO)[C@H](O)[C@@H](O)[C@@H]2NC)[C@@H](N/C(N)=N\[H])[C@@H]1O [Streptomycin, streptomycin], the MIC (MRSA [2]; [7]) was 7.8 to 15.6 µg/mL, the MIC50 (MRSA [2]; [7]) was 7.8 µg/mL and the MIC (MRSA [2]; [8]) was 2 to 15.6 µg/mL. For the same compound, the MIC50 (MRSA [2]; [8]) was 7.6 µg/mL, the MIC (MRSA No. 5; [9]) was < 0.98 µM and the “inhibitory effect on resistance of MRSA No.5 (in words)” value (MRSA No. 5; in the presence of flavone 0.5 mM) was “appeared not to be showed”.

With CN(C)C1C(=O)C(C(N)=O)=C(O)C2(O)C(=O)C3=C(O)c4c(O)cccc4C(C)(O)C3CC12 (centres unmarked) [Tetracycline, tetracycline] the MIC (MRSA [2]; Antibiotics alone) was 0.24 to 250 µg/mL, the MIC50 (MRSA [2]; [7]) was 0.98 µg/mL and the MIC (MRSA [2]; [8]) was 0.49 to 250 µg/mL. It also gave an MIC50 (MRSA [2]; [8]) of 0.98 µg/mL.
